Test results taken from publication PMC11070402, “New antiproliferative 3-substituted oxindoles inhibiting EGFR/VEGFR-2 and tubulin polymerization” (Molecular Diversity, 2023).
Read-outs that look alike come from different tables or passages of the source.

Key:
[1] = tested on: 60 human cancer cell lines; assay: NCI one-dose assay against sixty NCI cancer cell lines; assay type: cell-based
Experimental: (§1) All novel scaffolds 6a–j were carefully selected by the National Cancer Institute (NCI), Bethesda, USA, to elucidate their cytotoxic activity versus 60 human cancer cell lines at 10 µM as a single-dose concentration after a 48 h incubation period.
(§2) National Cancer Institution selected all the synthesized 6a–j (NCI), Bethesda, USA, for in vitro one-dose antitumor assay. The methodology protocol for the NCI anticancer screening was reported in detail elsewhere (http://www.dtp.nci.nih.gov). The anticancer assay was performed in full NCI 60 cell lines extracted from nine tumor cell lines, including leukemia, melanoma, lung, colon, CNS, ovarian, renal, prostate, and breast cancer cell lines.

[2] = tested on: SNB-75 cells (CNS cancer cell line); assay: NCI one-dose assay, SNB-75; assay type: cell-based; conditions: Homo sapiens
Experimental: as §1, §2

[3] = tested on: NCI/ADR-RES (ovarian cancer cell line); assay: NCI one-dose assay, NCI/ADR-RES; assay type: cell-based; conditions: Homo sapiens; NCI/ADR-RES (Ovarian Cancer), 10 uM single dose; read-out: Growth inhibition %
Experimental: as §1, §2

[4] = tested on: HOP-92 (non-small cell lung cancer cell line); assay: NCI one-dose assay, HOP-92; assay type: cell-based; conditions: Homo sapiens; HOP-92; 10 µM single dose, 48 h incubation; read-out: cell growth inhibition % (GI %)
Experimental: as §1, §2

UO-31 = assay: NCI one-dose assay, UO-31; assay type: cell-based; conditions: Homo sapiens; UO-31 (Renal Cancer), 10 uM single dose; read-out: Growth inhibition %
Experimental: as §1, §2

K-562 = assay: NCI one-dose assay, K-562; assay type: cell-based; conditions: Homo sapiens, K562; K-562 (Leukemia), 10 uM single dose; read-out: Growth inhibition %
Experimental: as §1, §2

MOLT-4 = assay: NCI one-dose assay, MOLT-4; assay type: cell-based; conditions: Homo sapiens; MOLT-4 (Leukemia), 10 uM single dose; read-out: Growth inhibition %
Experimental: as §1, §2

SR = assay: NCI one-dose assay, SR; assay type: cell-based; conditions: Homo sapiens; SR (Leukemia), 10 uM single dose; read-out: Growth inhibition %
Experimental: as §1, §2

LOX IMVI = assay: NCI one-dose assay, LOX IMVI; assay type: cell-based; conditions: Homo sapiens; LOX IMVI (Melanoma), 10 uM single dose; read-out: Growth inhibition %
Experimental: as §1, §2

MCF-7 = assay: NCI one-dose assay, MCF-7; assay type: cell-based, human; conditions: Homo sapiens, MCF7, MCF7 (Breast Cancer), 10 uM single dose; read-out: Growth inhibition %
Experimental: as §1, §2

T-47D = assay: NCI one-dose assay, T-47D; assay type: cell-based; conditions: Homo sapiens, T47D; T-47D (Breast Cancer), 10 uM single dose; read-out: Growth inhibition %
Experimental: as §1, §2

[5] = BT-549 (Breast Cancer), 10 uM single dose, read-out: Growth inhibition %
[6] = CAKI-1 (Renal Cancer), 10 uM single dose, read-out: Growth inhibition %
[7] = CCRF-CEM (Leukemia), 10 uM single dose, read-out: Growth inhibition %
[8] = HCT-116 (Colon Cancer), 10 uM single dose, read-out: Growth inhibition %
[9] = NCI-H226 (Non-Small Cell Lung Cancer), 10 uM single dose, read-out: Growth inhibition %
[10] = NCI-H522 (Non-Small Cell Lung Cancer), 10 uM single dose, read-out: Growth inhibition %
[11] = OVCAR-3 (Ovarian Cancer), 10 uM single dose, read-out: Growth inhibition %
[12] = PC-3 (Prostate Cancer), 10 uM single dose, read-out: Growth inhibition %
[13] = RPMI-8226 (Leukemia), 10 uM single dose, read-out: Growth inhibition %
[14] = UACC-62 (Melanoma), 10 uM single dose, read-out: Growth inhibition %
[15] = SNB-75 (CNS Cancer), 10 uM single dose, read-out: Growth inhibition %
[16] = ACHN (Renal Cancer), 10 uM single dose, read-out: Growth inhibition %
[17] = HCT-15 (Colon Cancer), 10 uM single dose, read-out: Growth inhibition %
[18] = NCI-H322M (Non-Small Cell Lung Cancer), 10 uM single dose, read-out: Growth inhibition %
[19] = HOP-62 (Non-Small Cell Lung Cancer), 10 uM single dose, read-out: Growth inhibition %
[20] = HS 578T (Breast Cancer), 10 uM single dose, read-out: Growth inhibition %
[21] = M14 (Melanoma), 10 uM single dose, read-out: Growth inhibition %
[22] = SF-268 (CNS Cancer), 10 uM single dose, read-out: Growth inhibition %
[23] = SF-539 (CNS Cancer), 10 uM single dose, read-out: Growth inhibition %
[24] = IGROV-1, IGROV1 (Ovarian Cancer), 10 uM single dose, read-out: Growth inhibition %

Row | SMILES | inhibition at 10 µM [1, 5] | inhibition at 10 µM [1, 6] | inhibition at 10 µM [1, 8] | inhibition at 10 µM [1, 9] | inhibition at 10 µM [1, 10] | inhibition at 10 µM [1, 11] | inhibition at 10 µM [1, 12] | inhibition at 10 µM [1, 14] | inhibition at 10 µM [2, 15] | inhibition at 10 µM (UO-31) | inhibition at 10 µM (K-562) | inhibition at 10 µM (MOLT-4) | inhibition at 10 µM (LOX IMVI) | inhibition at 10 µM (MCF-7) | inhibition at 10 µM (T-47D) | melting point | inhibition at 10 µM [1, 17] | inhibition at 10 µM [1, 18] | inhibition at 10 µM [1, 20] | inhibition at 10 µM [1, 22] | also measured
1 | COc1ccc(C(=O)COc2ccc(C=C3C(=O)Nc4ccc(Cl)cc43)cc2)cc1 [Compound 6i, 5-Chloro-3-{4-[2-(4-methoxyphenyl)-2-oxoethoxy]benzylidene}indolin-2-one] | 11.7% | 22.7% | 10.4% | 17.4% | 16.1% | 10.8% | 29.6% | 20.1% | 37.6% | 38.1% | 25% | 21.8% | 12.3% | 22.1% | 23.9% | 183 to 185 °C |  |  |  |  | inhibition at 10 µM [1, 7]: 12.5%; inhibition at 10 µM ([1]; OVCAR-8 (Ovarian Cancer), 10 uM single dose, read-out: Growth inhibition %): 10.6%; inhibition at 10 µM [1, 13]: 19.9%; inhibition at 10 µM ([1]; SK-MEL-2 (Melanoma), 10 uM single dose, read-out: Growth inhibition %): 22.2%; inhibition at 10 µM [3]: 13.1%; inhibition at 10 µM [4]: 62.1%; inhibition at 10 µM (SR): 21.2%
2 | COc1ccc2c(c1)C(=Cc1ccc(OCC(=O)c3ccccc3)cc1)C(=O)N2 [Compound 6e, 5-Methoxy-3-{4-[2-oxo-2-phenylethoxy]benzylidene}indolin-2-one] |  | 19.8% | 12% | 11.6% |  |  | 14.8% | 24.7% |  | 29.6% | 19.5% | 11.6% | 19.5% | 20.2% |  | 196 to 198 °C | 10.3% | 12.4% |  |  | inhibition at 10 µM [1, 16]: 11.2%
3 | O=C1Nc2ccc(F)cc2/C1=C\c1ccc(OCC(=O)c2ccccc2)cc1 [Compound 6d, (E/Z)-5-Fluoro-3-{4-[2-oxo-2-phenylethoxy]benzylidene}indolin-2-one] | 10.9% | 28.3% | 14.3% | 10.3% | 12.4% |  | 23% | 30.6% | 33.7% | 32.3% | 33.6% | 32.2% | 17.7% | 23.1% | 14.3% | 223 to 226 °C | 11.7% | 11.2% | 14.8% | 14.6% | inhibition at 10 µM [1, 7]: 15.6%; inhibition at 10 µM ([1]; EKVX (Non-Small Cell Lung Cancer), 10 uM single dose, read-out: Growth inhibition %): 18.9%; inhibition at 10 µM ([1]; HL-60(TB) (Leukemia), 10 uM single dose, read-out: Growth inhibition %): 16.9%; inhibition at 10 µM [1, 19]: 10.5%; inhibition at 10 µM ([1]; KM12 (Colon Cancer), 10 uM single dose, read-out: Growth inhibition %): 15.9%; inhibition at 10 µM [1, 21]: 12.1%; inhibition at 10 µM [1, 13]: 22.1%; inhibition at 10 µM [1, 23]: 14.3%; inhibition at 10 µM ([1]; SNB-19 (CNS Cancer), 10 uM single dose, read-out: Growth inhibition %): 14.9%; inhibition at 10 µM ([1]; U-251, U251 (CNS Cancer), 10 uM single dose, read-out: Growth inhibition %): 16.8%; inhibition at 10 µM (SR): 25.2%
4 | O=C1Nc2ccc(Cl)cc2C1=Cc1ccc(OCC(=O)c2ccccc2)cc1 [Compound 6b, 5-Chloro-3-{4-[2-oxo-2 phenylethoxy]benzylidene}indolin-2-one] |  | 31.9% |  | 13.3% |  | 12.7% | 24.9% | 25.1% | 31.1% | 39.5% | 23.5% | 13.4% |  | 38% |  | 189 to 191 °C | 11.9% |  | 13.7% | 11.3% | inhibition at 10 µM [1, 19]: 14.6%; inhibition at 10 µM [1, 24]: 20.3%; inhibition at 10 µM ([1]; MDA-MB-231, read-out: Growth inhibition %): 15.5%; inhibition at 10 µM ([1]; SK-OV-3 (Ovarian Cancer), 10 uM single dose, read-out: Growth inhibition %): 11.9%
5 | O=C1Nc2ccccc2C1=Cc1ccc(OCC(=O)c2ccccc2)cc1 [Compound 6a, 3-{4-[2-Oxo-2-phenylethoxy]benzylidene}indolin-2-one] |  | 13.1% |  | 11% |  |  | 17.1% | 12.9% | 26.2% | 30.5% | 11.1% |  |  | 11.3% |  | 219 to 221 °C |  |  |  |  | inhibition at 10 µM [3]: 1.84%
6 | O=C1Nc2cc(Cl)ccc2C1=Cc1ccc(OCC(=O)c2ccccc2)cc1 [Compound 6c, 6-Chloro-3-{4-[2-oxo-2-phenylethoxy]benzylidene}indolin-2-one] |  | 26.4% | 12.2% | 13.2% | 11.7% | 10.8% | 28.5% | 27.9% |  | 35% | 18% |  | 16.5% | 38.2% | 16.3% | 199 to 201 °C | 23.5% | 11.6% | 12.6% | 11.4% | inhibition at 10 µM [1, 16]: 15.9%; inhibition at 10 µM [1, 24]: 20.1%; inhibition at 10 µM [1, 21]: 11.1%; inhibition at 10 µM ([1]; RXF 393 (Renal Cancer), 10 uM single dose, read-out: Growth inhibition %): 16.4%; inhibition at 10 µM [1, 23]: 13.8%; inhibition at 10 µM ([2]; SNB-75, 10 µM single dose, 48 h incubation, read-out: cell growth inhibition % (GI %)): 41.2%
